Patent US20080113946A1, “N-aryl-5,7-dihydrofuro[3,4-d]pyrimidin-4-amines and analogs as activators of caspases and inducers of apoptosis and the use thereof” (Cyntovia, Inc., priority 2006, published 2008)

Columns and labels:
Assay type in all cases: cell-based
[1] = system: human hepatocellular carcinoma cell line SNU398; test: Caspase cascade activation (Ac-DEVD-R110 fluorogenic substrate) in SNU398 cells; conditions: SNU-398, incubated 24 or 48 h (Table I), 0.016 to 10 μM final, read-out: Caspase Activation Potency EC50 SNU398
Experimental: (§1) Human breast cancer cell line T-47D, human hepatocellular carcinoma cell line SNU398 and human colon carcinoma cell line HCT116 were grown according to media component mixtures designated by American Type Culture Collection+10% FCS (Invitrogen Corporation), in a 5% CO2-95% humidity incubator at 37° C. T-47D and H1299 cells were maintained at a cell density between 50 and 80% confluency at a cell density of 0.1 to 0.6×10^6 cells/mL. Cells were harvested at 600×g and resuspended at 0.65×10^6 cells/mL into appropriate media+10% FCS. An aliquot of 22.5 μL of cells was added to a well of a 384-well microtiter plate containing 2.5 μL of a 10% DMSO in RPMI-1640 media solution containing 0.16 to 100 μM of 5,7-dihydro-N-(3,5-dimethoxyphenyl)-2-(methylthio)furo[3,4-d]pyrimidin-4-amine or other test compound (0.016 to 10 μM final). An aliquot of 22.5 μL of cells was added to a well of a 384-well microtiter plate containing 2.5 μL of a 10% DMSO in RPMI-1640 media solution without test compound as the control sample. The samples were mixed by agitation and then incubated at 37° C. for 24 or 48 h in a 5% CO2-95% humidity incubator. After incubation, the samples were removed from the incubator and 25 μL of a solution containing 14 μM of N-(Ac-DEVD)-N′-ethoxycarbonyl-R110 (SEQ ID No.:1) fluorogenic substrate (Cytovia, Inc.; WO99/18856), 20% sucrose (Sigma), 20 mM DTT (Sigma), 200 mM NaCl (Sigma), 40 mM Na PIPES buffer pH 7.2 (Sigma), and 500 µg/mL lysolecithin (Calbiochem) was added. The samples were mixed by agitation and incubated at room temperature. Using a fluorescent plate reader (Model SPECTRAfluor Plus, Tecan), an initial reading (T=0) was made approximately 1-2 min after addition of the substrate solution, employing excitation at 485 nm and emission at 530 nm, to determine the background fluorescence of the control sample. After the 3 h incubation, the samples were read for fluorescence as above (T=3 h).
(§2) The Relative Fluorescence Unit values (RFU) were used to calculate the sample readings as follows: RFU(T=3h)−Control RFU(T=0)=Net RFU(T=3h)
(§3) The activity of caspase cascade activation was determined by the ratio of the net RFU value for 5,7-dihydro-N-(3,5-dimethoxyphenyl)-2-(methylthio)furo[3,4-d]pyrimidin-4-amino or other test compound to that of control samples. The EC50 (nM) was determined by a sigmoidal dose-response calculation (Prism 3.0, GraphPad Software Inc.).

HCT116 cells = test: Inhibition of cell proliferation (GI50, CellTiter-Glo) in HCT116 cells; conditions: Homo sapiens, HCT-116, 48 h, read-out: GI50 in Cancer Cells HCT116
Experimental: (§4) T-47D, MX-1, SNU398 and HCT116 cells were grown and harvested as in Example 33. An aliquot of 90 μL of cells (4.4×10^4 cells/mL) was added to a well of a 96-well microtiter plate containing 5 μL of a 10% DMSO in RPMI-1640 media solution containing 10 nM to 100 μM of 5,7-dihydro-N-(3,5-dimethoxyphenyl)-2-(methylthio)furo[3,4-d]pyrimidin-4-amine (1 nM to 10 μM final) or related compounds. An aliquot of […] of cells was added to a well of a 96-well microtiter plate containing 5 μL of a 10% DMSO in RPMI-1640 media solution without compound as the control sample for maximal cell proliferation (LMax). The samples were mixed by agitation and then incubated at 37° C. for 48 h in a 5% CO2-95% humidity incubator. After incubation, the samples were removed from the incubator and 25 μL of CellTiter-Glo™ reagent (Promega) was added. The samples were mixed by agitation and incubated at room temperature for 10-15 min. Plates were then read using a luminescent plate reader (Model SPECTRAfluor Plus, Tecan) to give Ltest values.
(§5) Baseline for GI50 (dose for 50% inhibition of cell proliferation) of initial cell numbers was determined by adding an aliquot of 45 μL of cells or 45 μL of media, respectively, to wells of a 96-well microtiter plate containing 5 μL of a 10% DMSO in RPMI-1640 media solution. The samples were mixed by agitation and then incubated at 37° C. for 0.5 h in a 5% CO2-95% humidity incubator. After incubation, the samples were removed from the incubator and 25 μL of CellTiter-Glo™ reagent (Promega) was added. The samples were mixed by agitation and incubated at 37° C. for 10-15 min at room temperature in a 5% CO2-95% humidity incubator. Fluorescence was read as above, (LStart) defining luminescence for initial cell number used as baseline in GI50 determinations.
(§6) GI50 (dose for 50% inhibition of cell proliferation) is the concentration where [(LTest−LStart)/(LMax−LStart)]=0.5.

T-47D cells = test: Inhibition of cell proliferation (GI50, CellTiter-Glo) in T-47D cells; conditions: Homo sapiens, T47D, 48 h, read-out: GI50 in Cancer Cells T47D
Experimental: as §4, §5, §6

[2] = system: human colon carcinoma cell line HCT116; test: Caspase cascade activation (Ac-DEVD-R110 fluorogenic substrate) in HCT116 cells; conditions: HCT-116, incubated 24 or 48 h (Table I), 0.016 to 10 μM final, read-out: Caspase Activation Potency EC50 HCT116
Experimental: as §1, §2, §3

MX-1 cells = test: Inhibition of cell proliferation (GI50, CellTiter-Glo) in MX-1 cells; conditions: Homo sapiens, MX1, 48 h, read-out: GI50 in Cancer Cells MX1
Experimental: as §4, §5, §6

[3] = system: Human breast cancer cell line T-47D; test: Caspase cascade activation (Ac-DEVD-R110 fluorogenic substrate) in T-47D cells; conditions: T47D, T-47D, incubated 24 or 48 h (Table I), 0.016 to 10 μM final, read-out: Caspase Activation Potency EC50 T-47D
Experimental: as §1, §2, §3

SNU398 cells = test: Inhibition of cell proliferation (GI50, CellTiter-Glo) in SNU398 cells; conditions: Homo sapiens, SNU-398, 48 h, read-out: GI50 in Cancer Cells SNU398
Experimental: as §4, §5, §6

EC50 [1] | GI50 (HCT116 cells) | GI50 (T-47D cells) | EC50 [2] | EC50 [3] | GI50 (SNU398 cells) | SMILES | GI50 (MX-1 cells)
> 10 µM | – | – | > 10 µM | > 10 µM | – | Cc1cc(Nc2nc(N3CCN(C)CC3)nc3c2CNC3)[nH]n1 [Example 28, [2-(4-Methyl-piperazin-1-yl)-6,7-dihydro-5H-pyrrolo[3,4-d]pyrimidin-4-yl]-(5-methyl-2H-pyrazol-3-yl)-amine] | –
> 10 µM | – | – | > 10 µM | > 10 µM | – | O=C(Nc1ccc(Sc2nc(Cl)nc3c2CN(C(=O)OCC2c4ccccc4-c4ccccc42)C3)cc1)C1CC1 [Example 29, (9H-Fluoren-9-yl)methyl 2-chloro-4-((4-(cyclopropanecarboxamido)phenyl)sulfanyl)-5H-pyrrolo[3,4-d]pyrimidine-6(7H)-carboxylate] | –
> 10 µM | – | – | > 10 µM | > 10 µM | – | Cc1cc(Nc2nc(N3CCN(C)CC3)nc3c2COC3)[nH]n1 [Example 32, 5,7-Dihydro-N-(3-methyl-1H-pyrazol-5-yl)-2-(4-methylpiperazin-1-yl)furo[3,4-d]pyrimidin-4-amine] | –

Continued, compound first:

SMILES | EC50 [1] | GI50 (HCT116 cells) | GI50 (T-47D cells) | EC50 [2] | EC50 [3] | GI50 (SNU398 cells) | GI50 (MX-1 cells)
COc1cc(Nc2nc([S+](C)[O-])nc3c2CCC3)cc(OC)c1 (stereo not shown) [Example 27, 6,7-Dihydro-N-(3,5-dimethoxyphenyl)-2-(methylsulfinyl)-5H-cyclopenta[d]pyrimidin-4-amine] | > 10 µM | > 10 µM | 500 nM | > 10 µM | 0.164 µM | > 10 µM | 600 nM
COc1cc(Nc2nc(Cl)nc3c2CN(C(=O)OCC2c4ccccc4-c4ccccc42)C3)cc(N(C)C)c1 [Example 30, (9H-Fluoren-9-yl)methyl 4-(3-(dimethylamino)-5-methoxyphenylamino)-2-chloro-5H-pyrrolo[3,4-d]pyrimidine-6(7H)-carboxylate] | > 10 µM | – | – | > 10 µM | 1.57 µM | – | –
COc1ccc(N(C)c2nc(Cl)nc3c2CN(C(=O)OCC2c4ccccc4-c4ccccc42)C3)cc1 [Example 31, (9H-Fluoren-9-yl)methyl 4-(N-(4-methoxyphenyl)-N-methylamino)-2-chloro-5H-pyrrolo[3,4-d]pyrimidine-6(7H)-carboxylate] | 5 µM | – | – | > 10 µM | > 10 µM | – | –
